Reference: ChEMBL document CHEMBL3603736, “3-Substituted pyrazoles and 4-substituted triazoles as inhibitors of human 15-lipoxygenase-1” (Bioorg Med Chem Lett, 2015)
pIC50: −log10 of the molar value. In brackets after ≈: the same amount, converted by molar mass.

How the values were obtained:
CYP2B6 = CYP2B6 (Homo sapiens, UniProt P20813); test: Inhibition of human CYP2B6 at 10 uM; assay type: ADME
Cytochrome P450 2C8 [1] = target: T1, Cytochrome P450 2C8 (Homo sapiens, UniProt P10632); test: Inhibition of human CYP2C8; assay type: ADME
T1 sequence (P10632 whole entry): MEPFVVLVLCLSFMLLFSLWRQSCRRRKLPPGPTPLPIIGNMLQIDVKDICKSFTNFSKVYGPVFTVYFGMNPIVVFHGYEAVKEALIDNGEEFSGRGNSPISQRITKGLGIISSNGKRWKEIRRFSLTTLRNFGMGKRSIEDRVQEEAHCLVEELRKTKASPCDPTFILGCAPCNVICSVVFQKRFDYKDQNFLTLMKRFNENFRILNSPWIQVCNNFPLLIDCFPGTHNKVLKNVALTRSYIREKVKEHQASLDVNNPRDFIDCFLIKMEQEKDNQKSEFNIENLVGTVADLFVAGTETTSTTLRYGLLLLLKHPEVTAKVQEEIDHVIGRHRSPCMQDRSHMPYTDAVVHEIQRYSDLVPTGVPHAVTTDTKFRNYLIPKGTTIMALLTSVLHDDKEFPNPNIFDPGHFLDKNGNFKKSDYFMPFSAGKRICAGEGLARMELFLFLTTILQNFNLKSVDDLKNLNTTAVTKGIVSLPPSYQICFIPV

Cytochrome P450 2C8 [2] = target: T1, Cytochrome P450 2C8; test: Inhibition of human CYP2C8 at 10 uM; assay type: ADME
Cytochrome P450 2C9 = Cytochrome P450 2C9 (Homo sapiens, UniProt P11712); test: Inhibition of human CYP2C9; assay type: ADME; conditions: read-out: IC50
Cytochrome P450 2C9, sequence (P11712 whole entry): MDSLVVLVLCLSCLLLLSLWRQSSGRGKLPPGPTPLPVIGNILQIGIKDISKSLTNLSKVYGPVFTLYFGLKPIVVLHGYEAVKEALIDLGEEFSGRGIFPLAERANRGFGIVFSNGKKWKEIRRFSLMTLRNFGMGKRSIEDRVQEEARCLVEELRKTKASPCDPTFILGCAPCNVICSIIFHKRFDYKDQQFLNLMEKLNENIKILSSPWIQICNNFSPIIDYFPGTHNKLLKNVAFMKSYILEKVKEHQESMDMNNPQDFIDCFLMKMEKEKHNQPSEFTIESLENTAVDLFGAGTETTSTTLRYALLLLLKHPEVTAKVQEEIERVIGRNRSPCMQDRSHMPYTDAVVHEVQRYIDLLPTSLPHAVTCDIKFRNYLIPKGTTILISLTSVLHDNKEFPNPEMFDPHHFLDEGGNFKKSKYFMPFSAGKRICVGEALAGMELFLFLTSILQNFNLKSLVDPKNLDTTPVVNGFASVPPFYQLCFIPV

Cytochrome P450 2C19 = Cytochrome P450 2C19 (Homo sapiens, UniProt P33261); test: Inhibition of human CYP2C19; assay type: ADME; conditions: read-out: IC50
Cytochrome P450 2C19, sequence (P33261 whole entry): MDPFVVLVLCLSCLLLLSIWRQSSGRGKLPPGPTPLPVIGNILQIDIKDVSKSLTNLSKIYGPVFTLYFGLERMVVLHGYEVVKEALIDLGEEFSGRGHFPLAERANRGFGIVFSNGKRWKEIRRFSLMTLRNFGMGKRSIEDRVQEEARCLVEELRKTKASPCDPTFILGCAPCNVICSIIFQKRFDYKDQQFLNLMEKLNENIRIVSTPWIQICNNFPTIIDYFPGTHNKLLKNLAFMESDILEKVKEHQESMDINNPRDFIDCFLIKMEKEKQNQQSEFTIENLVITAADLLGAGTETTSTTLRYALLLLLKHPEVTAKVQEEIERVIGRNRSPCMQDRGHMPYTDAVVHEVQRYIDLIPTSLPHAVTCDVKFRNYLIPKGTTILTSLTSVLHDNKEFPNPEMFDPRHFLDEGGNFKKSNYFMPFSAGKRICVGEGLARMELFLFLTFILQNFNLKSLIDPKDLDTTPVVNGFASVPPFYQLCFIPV

Cytochrome P450 2D6 = Cytochrome P450 2D6 (Homo sapiens, UniProt P10635); test: Inhibition of human CYP2D6; assay type: ADME
Cytochrome P450 2D6, sequence (P10635 whole entry): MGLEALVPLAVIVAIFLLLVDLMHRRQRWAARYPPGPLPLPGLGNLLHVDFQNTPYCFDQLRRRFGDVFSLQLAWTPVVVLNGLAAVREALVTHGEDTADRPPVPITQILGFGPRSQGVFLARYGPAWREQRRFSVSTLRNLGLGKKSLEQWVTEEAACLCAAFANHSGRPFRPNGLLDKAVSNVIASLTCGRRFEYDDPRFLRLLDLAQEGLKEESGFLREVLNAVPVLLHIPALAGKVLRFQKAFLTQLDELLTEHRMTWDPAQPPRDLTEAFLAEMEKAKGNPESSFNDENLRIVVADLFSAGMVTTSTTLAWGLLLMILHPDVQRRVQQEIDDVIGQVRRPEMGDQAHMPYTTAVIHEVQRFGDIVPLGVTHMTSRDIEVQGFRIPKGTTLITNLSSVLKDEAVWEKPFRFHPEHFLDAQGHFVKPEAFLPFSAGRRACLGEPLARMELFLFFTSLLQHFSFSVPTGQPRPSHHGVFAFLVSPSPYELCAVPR

CYP2E1 = CYP2E1 (Homo sapiens, UniProt P05181); test: Inhibition of human CYP2E1 at 10 uM; assay type: ADME
Cytochrome P450 3A4 = Cytochrome P450 3A4 (Homo sapiens, UniProt P08684); test: Inhibition of human CYP3A4; assay type: ADME; conditions: read-out: IC50
Cytochrome P450 3A4, sequence (P08684 whole entry): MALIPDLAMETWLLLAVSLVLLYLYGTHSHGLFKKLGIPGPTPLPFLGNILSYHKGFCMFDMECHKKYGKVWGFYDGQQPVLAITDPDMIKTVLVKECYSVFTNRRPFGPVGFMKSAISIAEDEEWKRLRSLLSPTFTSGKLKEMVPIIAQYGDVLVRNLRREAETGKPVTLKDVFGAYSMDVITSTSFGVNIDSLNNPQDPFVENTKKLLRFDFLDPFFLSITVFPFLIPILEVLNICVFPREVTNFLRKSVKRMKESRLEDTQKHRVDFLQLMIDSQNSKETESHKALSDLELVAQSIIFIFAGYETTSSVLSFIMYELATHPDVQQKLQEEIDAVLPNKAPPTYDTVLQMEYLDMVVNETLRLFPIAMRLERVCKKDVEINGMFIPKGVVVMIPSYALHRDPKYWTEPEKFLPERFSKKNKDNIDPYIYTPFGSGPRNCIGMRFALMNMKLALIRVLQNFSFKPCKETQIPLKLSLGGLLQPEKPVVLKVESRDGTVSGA

Escherichia coli = test: Genotoxicity in Escherichia coli by SOS/umu test; assay type: toxicity, organism-based
[3] = Protein binding in plasma (unknown origin); assay type: ADME, cell-free; conditions: read-out: PPB (converted)
[4] = target: Voltage-gated inwardly rectifying potassium channel KCNH2 (Homo sapiens, UniProt Q12809); test: Inhibition of human ERG
[5] = target: Polyunsaturated fatty acid lipoxygenase ALOX15B (Homo sapiens, UniProt O15296); test: Inhibition of human 15-LOX-2 expressed in Sf9 cells assessed as reduction in conversion of arachidonic acid to 15-HETE pre-incubated 5 min before arachidonic acid substrate addition by HPLC-UV spectroscopy
Polyunsaturated fatty acid lipoxygenase ALOX15B, sequence (O15296 whole entry): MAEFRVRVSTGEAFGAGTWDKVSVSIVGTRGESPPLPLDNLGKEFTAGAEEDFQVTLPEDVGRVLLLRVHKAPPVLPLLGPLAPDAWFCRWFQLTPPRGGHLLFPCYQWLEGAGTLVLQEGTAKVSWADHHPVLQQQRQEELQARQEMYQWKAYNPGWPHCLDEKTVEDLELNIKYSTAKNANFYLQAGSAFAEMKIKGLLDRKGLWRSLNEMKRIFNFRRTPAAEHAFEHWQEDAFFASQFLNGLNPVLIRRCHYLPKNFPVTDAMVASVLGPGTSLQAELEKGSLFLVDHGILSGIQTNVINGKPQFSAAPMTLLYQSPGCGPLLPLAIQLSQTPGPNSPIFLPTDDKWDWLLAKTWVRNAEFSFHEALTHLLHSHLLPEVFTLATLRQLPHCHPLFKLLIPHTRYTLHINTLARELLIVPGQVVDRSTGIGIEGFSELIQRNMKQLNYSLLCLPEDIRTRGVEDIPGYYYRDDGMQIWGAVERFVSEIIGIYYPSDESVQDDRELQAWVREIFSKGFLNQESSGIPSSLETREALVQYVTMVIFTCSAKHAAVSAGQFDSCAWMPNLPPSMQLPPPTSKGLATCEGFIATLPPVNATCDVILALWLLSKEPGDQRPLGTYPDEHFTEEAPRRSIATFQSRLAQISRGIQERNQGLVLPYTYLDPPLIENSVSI

[6] = target: Polyunsaturated fatty acid lipoxygenase ALOX12 (Homo sapiens) (UniProt P18054); test: Inhibition of human platelet 12-LOX assessed as reduction in conversion of arachidonic acid to […] at 10 uM pre-incubated 5 min before arachidonic acid substrate addition by HPLC-UV spectroscopy
Polyunsaturated fatty acid lipoxygenase ALOX12 (Homo sapiens), sequence (P18054 whole entry): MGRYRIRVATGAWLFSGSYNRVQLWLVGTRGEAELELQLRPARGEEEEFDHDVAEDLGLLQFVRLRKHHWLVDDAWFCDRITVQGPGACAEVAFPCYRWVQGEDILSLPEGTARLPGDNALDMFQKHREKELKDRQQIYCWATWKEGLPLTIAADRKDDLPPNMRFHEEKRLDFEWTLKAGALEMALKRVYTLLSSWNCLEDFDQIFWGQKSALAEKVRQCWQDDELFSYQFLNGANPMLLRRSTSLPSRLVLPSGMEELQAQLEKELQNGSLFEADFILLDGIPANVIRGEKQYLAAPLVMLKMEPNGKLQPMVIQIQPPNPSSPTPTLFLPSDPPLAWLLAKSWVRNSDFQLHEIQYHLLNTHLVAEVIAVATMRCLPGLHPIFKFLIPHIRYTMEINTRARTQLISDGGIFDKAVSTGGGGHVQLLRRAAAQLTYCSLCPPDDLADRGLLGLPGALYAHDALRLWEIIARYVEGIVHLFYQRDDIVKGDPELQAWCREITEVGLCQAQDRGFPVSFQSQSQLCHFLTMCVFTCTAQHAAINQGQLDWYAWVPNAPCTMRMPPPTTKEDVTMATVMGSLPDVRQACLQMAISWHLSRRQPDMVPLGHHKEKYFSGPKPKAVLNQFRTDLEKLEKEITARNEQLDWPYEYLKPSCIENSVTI

[7] = target: Polyunsaturated fatty acid 5-lipoxygenase (Homo sapiens) (UniProt P09917); test: Inhibition of 5-LOX in calcium ionophore and arachidonic acid-stimulated purified human granulocytes assessed as reduction in LTB4 formation at 10 uM by HPLC-UV spectroscopy
[8] = target: T2, Prostaglandin G/H synthase 1 (Ovis aries) (UniProt P05979); test: Inhibition of ovine COX1 assessed as reduction in PGH2-derived PGF2alpha production at 10 uM by enzyme immunoassay
T2 sequence (whole entry): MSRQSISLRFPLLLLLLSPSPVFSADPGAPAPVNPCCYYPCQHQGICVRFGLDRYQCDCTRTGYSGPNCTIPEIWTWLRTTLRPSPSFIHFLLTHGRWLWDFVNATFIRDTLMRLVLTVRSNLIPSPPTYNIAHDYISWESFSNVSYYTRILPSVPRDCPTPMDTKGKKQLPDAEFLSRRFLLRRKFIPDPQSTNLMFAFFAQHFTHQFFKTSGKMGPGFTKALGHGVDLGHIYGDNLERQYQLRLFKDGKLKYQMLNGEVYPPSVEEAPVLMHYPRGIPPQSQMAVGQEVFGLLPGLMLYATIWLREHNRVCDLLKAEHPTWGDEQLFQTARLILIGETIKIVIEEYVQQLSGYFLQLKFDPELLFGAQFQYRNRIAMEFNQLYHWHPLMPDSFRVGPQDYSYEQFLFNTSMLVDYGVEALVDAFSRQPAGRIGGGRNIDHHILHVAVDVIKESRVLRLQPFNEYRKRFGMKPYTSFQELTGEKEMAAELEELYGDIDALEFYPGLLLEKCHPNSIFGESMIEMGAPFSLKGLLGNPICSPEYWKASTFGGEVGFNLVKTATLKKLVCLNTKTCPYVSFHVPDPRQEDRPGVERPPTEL

[9] = target: T3, Prostaglandin G/H synthase 2 (Homo sapiens) (UniProt P35354); test: Inhibition of human recombinant COX2 assessed as reduction in PGH2-derived PGF2alpha production at 10 uM by enzyme immunoassay
T3 sequence (whole entry): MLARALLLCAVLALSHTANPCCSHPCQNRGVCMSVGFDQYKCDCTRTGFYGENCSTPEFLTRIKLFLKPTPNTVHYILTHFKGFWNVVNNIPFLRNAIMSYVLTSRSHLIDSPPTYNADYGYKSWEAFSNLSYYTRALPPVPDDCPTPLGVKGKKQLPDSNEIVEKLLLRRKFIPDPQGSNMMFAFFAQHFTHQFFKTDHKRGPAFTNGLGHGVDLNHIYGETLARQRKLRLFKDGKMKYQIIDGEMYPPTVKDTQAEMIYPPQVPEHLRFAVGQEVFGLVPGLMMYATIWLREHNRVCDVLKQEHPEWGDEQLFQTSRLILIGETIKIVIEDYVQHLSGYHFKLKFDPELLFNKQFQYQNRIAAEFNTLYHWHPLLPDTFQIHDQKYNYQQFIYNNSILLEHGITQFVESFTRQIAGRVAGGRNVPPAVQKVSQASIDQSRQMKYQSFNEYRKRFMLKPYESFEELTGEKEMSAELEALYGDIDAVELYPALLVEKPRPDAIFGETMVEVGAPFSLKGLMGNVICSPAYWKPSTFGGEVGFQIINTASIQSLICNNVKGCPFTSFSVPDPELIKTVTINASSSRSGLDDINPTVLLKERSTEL

[10] = target: Arachidonate 12-lipoxygenase (Rattus norvegicus) (UniProt Q02759); test: (§1) Inhibition of rat 15-LOX-1 expressed in Sf9 cells assessed as reduction in conversion of arachidonic acid to 15-HETE pre-incubated 5 min before arachidonic acid substrate addition by HPLC-UV spectroscopy
Arachidonate 12-lipoxygenase (Rattus norvegicus), sequence (Q02759 whole entry): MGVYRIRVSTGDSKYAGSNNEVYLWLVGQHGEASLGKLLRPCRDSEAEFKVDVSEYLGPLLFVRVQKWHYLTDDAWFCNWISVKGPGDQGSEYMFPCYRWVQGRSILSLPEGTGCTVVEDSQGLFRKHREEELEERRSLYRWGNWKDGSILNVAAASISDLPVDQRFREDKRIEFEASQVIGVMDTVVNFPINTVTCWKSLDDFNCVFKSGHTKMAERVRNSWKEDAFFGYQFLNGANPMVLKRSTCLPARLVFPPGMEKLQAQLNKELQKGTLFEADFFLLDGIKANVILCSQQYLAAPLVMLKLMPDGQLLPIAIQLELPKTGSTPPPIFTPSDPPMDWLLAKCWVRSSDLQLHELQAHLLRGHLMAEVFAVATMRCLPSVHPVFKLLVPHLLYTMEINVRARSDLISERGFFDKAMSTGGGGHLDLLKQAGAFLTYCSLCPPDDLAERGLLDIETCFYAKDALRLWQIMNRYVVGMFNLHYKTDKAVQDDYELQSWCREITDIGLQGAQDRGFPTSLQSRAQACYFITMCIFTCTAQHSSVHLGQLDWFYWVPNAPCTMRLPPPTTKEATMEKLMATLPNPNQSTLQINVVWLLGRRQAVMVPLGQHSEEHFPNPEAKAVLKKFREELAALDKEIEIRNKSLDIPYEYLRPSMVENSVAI

[11] = target: Arachidonate 12-lipoxygenase (Rattus norvegicus, UniProt Q02759); test: as §1
Arachidonate 12-lipoxygenase (Rattus norvegicus, UniProt Q02759), sequence (Q02759 whole entry): as above

[12] = Inhibition of dog 15-LOX-1 expressed in Sf9 cells assessed as reduction in conversion of arachidonic acid to 15-HETE pre-incubated 5 min before arachidonic acid substrate addition by HPLC-UV spectroscopy; design: species or system Canis lupus familiaris
[13] = target: Arachidonate 12-lipoxygenase (Sus scrofa, UniProt P16469); test: Inhibition of pig 15-LOX-1 expressed in Sf9 cells assessed as reduction in conversion of arachidonic acid to 15-HETE pre-incubated 5 min before arachidonic acid substrate addition by HPLC-UV spectroscopy
[14] = Aqueous solubility in pH 2.0 buffer; assay type: physicochemical
[15] = Aqueous solubility in pH 7.4 buffer; assay type: physicochemical
[16] = Aqueous solubility in pH 10 buffer; assay type: physicochemical
[17] = Half life in human microsomes; assay type: ADME, Microsome
[18] = Intrinsic clearance in human microsomes; assay type: ADME, Microsome
Caco-2 = test: Permeability in human Caco2 cells; assay type: ADME, cell-based
Cytochrome P450 1A2 = Cytochrome P450 1A2 (Homo sapiens, UniProt P05177); test: Inhibition of human CYP1A2; assay type: ADME

CYP2B6, sequence (P20813 whole entry): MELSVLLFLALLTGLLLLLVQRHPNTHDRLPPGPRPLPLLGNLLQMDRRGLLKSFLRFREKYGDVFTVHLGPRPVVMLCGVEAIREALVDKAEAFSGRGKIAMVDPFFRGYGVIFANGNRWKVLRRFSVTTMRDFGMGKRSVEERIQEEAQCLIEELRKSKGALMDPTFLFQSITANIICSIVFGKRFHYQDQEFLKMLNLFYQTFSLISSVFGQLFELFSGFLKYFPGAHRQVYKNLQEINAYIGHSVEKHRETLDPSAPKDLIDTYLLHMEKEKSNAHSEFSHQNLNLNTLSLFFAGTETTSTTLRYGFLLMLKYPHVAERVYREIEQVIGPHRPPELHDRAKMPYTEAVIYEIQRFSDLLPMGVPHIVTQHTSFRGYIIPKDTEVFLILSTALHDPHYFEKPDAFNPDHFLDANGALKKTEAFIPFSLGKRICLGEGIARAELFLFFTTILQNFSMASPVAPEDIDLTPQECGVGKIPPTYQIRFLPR

Structure (SMILES): O=C(Nc1ccc(Cl)cc1Cl)c1cn[nH]n1
- inhibition at 10 µM (CYP2B6): 93%
- IC50 (Cytochrome P450 2C8 [1]): Not Active
- inhibition (INH) (Cytochrome P450 2C8 [2]): Not Active
- pIC50 (Cytochrome P450 2C9): 6.30
- pIC50 (Cytochrome P450 2C19): 5.85
- pIC50 (Cytochrome P450 2D6): < 4.00
- inhibition at 10 µM (CYP2E1): 10%
- pIC50 (Cytochrome P450 3A4): 4.24
- Activity (Escherichia coli): Non-toxic
- fraction unbound [3]: < 0.01
- inhibition (INH) [4]: Not Active
- IC50 [5]: Not Active
- inhibition [6]: 42%
- inhibition [7]: < 50%
- inhibition [8]: 4%
- inhibition [9]: 10%
- Imax [10]: 79%
- pIC50 [11]: 4.62
- pIC50 [12]: 5.62
- pIC50 [13]: 7.11
- solubility [14]: 24.3 µg/mL (≈ 94.5 µM)
- solubility [15]: 83.6 µg/mL (≈ 325 µM)
- solubility [16]: > 287 µg/mL
- half-life [17]: > 1.67 h
- microsomal CLint [18]: < 1 µL/min/mg
- permeability (Caco-2): permeable
- pIC50 (Cytochrome P450 1A2): 4.67
